# From patent US20250011404A1, “TARGETING APOE ENHANCES T-CELL KILLING IN CANCER IMMUNOTHERAPY” (Children's National Medical Center, priority 2021, published 2025)
# Test system: mouse apoE gene
# Experiment: gRNA screening by next generation sequencing for INDEL frequency in B16-F10 cells
# Type: cell-based
# Conditions: RNP electroporated into B16-F10 cells; NGS
# Procedure: Six guide RNAs (gRNAs) were designed using IDT's gRNA design tool, targeting the mouse apoE gene. gRNAs were synthesized as 2-part crRNA: tracrRNA gRNAs with chemical modifications (Integrated DNA Technologies, Inc., IA) and were functionally screened by next generation sequencing (NGS) for high INDEL (insertion/deletion) frequency and low in-frame INDEL rates. gRNAs were prepared by complexing a 1:1 molar ratio of the crRNA: tracrRNA at a final concentration of 100 μM, heating to 95° C. and slowly cooling to room temperature. […]
# The electroporated cells were plated in 1 well of a 6-well plate and allowed to grow until confluent. The cells were then dissociated by trypsinization, resuspended in media, and counted. […] The genomic DNA from each well was subject to quantification of total editing and analysis of INDEL profile by NGS to confirm a monoclonal isolate.
# Genomic DNA libraries for sequencing were prepared using IDT rhAmpSeq targeted amplification. […] Libraries were purified using Agencourt® AMPure® XP system (Beckman Coulter, Brea, CA, USA) with a 1:1 ratio of beads to reaction by volume and quantified with quantitative real-time PCR (qPCR) before loading onto the Illumina® MiSeq platform (Illumina, San Diego, CA, USA). Paired end 150 base pair reads were sequenced using V2 chemistry. A sequencing depth of at least 1000 reads was obtained for each sample. […]
sequence,measurement,value
"GGACACTATGACGGAAGTAA (listed as DNA, chemistry not given here) [Mm. Cas9.APOE.1-E]",INDEL frequency,99%
same,in-frame INDELs,no
